Each molecule was assayed against T1, Nuclear receptor ROR-gamma (Homo sapiens, UniProt P51449) (assay: Fluorescence Based Assay: ThermoFluor is a fluorescence based assay that estimates ligand binding affinities by measuring the effect of a ligand on protein thermal stability (Pantoliano, M. W., Petrella, E. C., Kwasnoski, J. D., Lobanov, V. S., Myslik, J., Graf, E., Carver, T., Asel, E., Springer, B. A., Lane, P., and Salemme, F. R. (2001) High-density miniaturized thermal shift assays as a general strategy for drug discovery. J Biomol Screen 6, 429-40, and Matulis, D., Kranz, J. K., Salemme, F. R., and Todd, M. J. (2005) Thermodynamic stability of carbonic anhydrase: measurements of binding affinity and stoichiometry using ThermoFluor. Biochemistry 44, 5258-66). This approach is applicable to a wide variety of systems, and rigorous in theoretical interpretation through quantitation of equilibrium binding constants (KD).).
T1 sequence (P51449 whole entry): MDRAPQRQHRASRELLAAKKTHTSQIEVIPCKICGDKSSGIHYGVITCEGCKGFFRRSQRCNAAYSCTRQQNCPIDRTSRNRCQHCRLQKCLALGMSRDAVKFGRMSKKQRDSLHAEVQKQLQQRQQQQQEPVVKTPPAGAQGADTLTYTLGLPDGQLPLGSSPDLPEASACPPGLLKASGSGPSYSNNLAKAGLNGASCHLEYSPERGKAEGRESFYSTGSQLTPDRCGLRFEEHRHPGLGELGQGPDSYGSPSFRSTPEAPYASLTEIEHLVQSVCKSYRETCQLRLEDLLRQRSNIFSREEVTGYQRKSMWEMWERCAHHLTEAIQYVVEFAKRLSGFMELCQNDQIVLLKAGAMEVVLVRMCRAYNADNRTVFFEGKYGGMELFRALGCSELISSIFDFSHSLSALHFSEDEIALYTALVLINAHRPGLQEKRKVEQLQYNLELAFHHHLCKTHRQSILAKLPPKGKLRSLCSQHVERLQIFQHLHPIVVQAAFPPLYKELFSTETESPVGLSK

Q: With `CCc1nc(C(=O)NC[C@]2(O)CC[C@@H](S(C)(=O)=O)CC2)c(C)n1-c1ncc(CC(C)(C)C(F)(F)F)cc1OC(F)F` as the molecule, how does the Kd read?
A: Its Kd is 23 nM.

Q: For `CCc1nc(C(=O)NC[C@H]2CC[C@H](S(C)(=O)=O)CC2)c(Cl)n1-c1ncc(CCCC(F)(F)F)cc1OC(F)F`, which Kd is on record?
A: The Kd was 15 nM.

Q: `CCc1nc(C(=O)NC[C@]2(O)CC[C@@H](S(C)(=O)=O)CC2)c(Cl)n1-c1ncc(CCCC(F)(F)F)cc1OC(F)F` was tested. Which Kd did it give?
A: Its Kd is 87 nM.
